# Test results published in patent US10077264B2, “Derivatives and methods of treating hepatitis B infections” (Novira Therapeutics, Inc., priority 2014, dated 2018).
# pEC50: −log10 of the molar value.
# System: HBV replication in HepG2.2.15 cells
# Assay: HBV replication inhibition assay (BDNA assay)
# Assay type: cell-based
# Settings: Hepatitis B virus, 144 h; HepG2.2.15 cells, 10 μM, 6 days, encapsidated HBV DNA in supernatant; read-out: Activity in BDNA-assay (activity at 10 μM)
# Text: HBV replication inhibition by the compounds of this invention could be determined in cells infected or transfected with HBV, or cells with stably integrated HBV, such as HepG2.2.15 cells (Sells et al. 1987). In this example, HepG2.2.15 cells were maintained in cell culture medium containing 10% fetal bovine serum (FBS), Geneticin, L-glutamine, penicillin and streptomycin. HepG2.2.15 cells could be seeded in 96-well plates at a density of 40,000 cells/well and be treated with serially diluted compounds at a final DMSO concentration of 0.5% either alone or in combination by adding drugs in a checker box format. Cells were incubated with compounds for three days, after which medium was removed and fresh medium containing compounds was added to cells and incubated for another three days. At day 6, supernatant was removed and treated with DNase at 37° C. for 60 minutes, followed by enzyme inactivation at 75° C. for 15 minutes. Encapsidated HBV DNA was released from the virions and covalently linked HBV polymerase by incubating in lysis buffer (Affymetrix QS0010) containing […] proteinase K at 50° C. for 40 minutes. HBV DNA was denatured by addition of 0.2 M NaOH and detected using a branched DNA (BDNA) QuantiGene assay kit according to manufacturer recommendation (Affymetrix). HBV DNA levels could also be quantified using qPCR, based on amplification of encapsidated HBV DNA extraction with QuickExtraction Solution (Epicentre Biotechnologies) and amplification of HBV DNA using HBV specific PCR probes that can hybridize to HBV DNA and a fluorescently labeled probe for quantitation. In addition, cell viability of HepG2.2.15 cells incubated with test compounds alone or in combination was determined by using CellTitre-Glo reagent according to the manufacturer protocol (Promega). The mean background signal from wells containing only culture medium was subtracted from all other samples, and percent inhibition at each compound concentration was calculated by normalizing to signals from HepG2.2.15 cells treated with 0.5% DMSO using equation E1. % inhibition=(DMSOave−Xi)/DMSOave×100% E1: • where DMSOave is the mean signal calculated from the wells that were treated with DMSO control (0% inhibition control) and Xi is the signal measured from the individual wells. EC50 values, effective concentrations that achieved 50% inhibitory effect, were determined by non-linear fitting using Graphpad Prism software (San Diego, Calif.) and equation E2 Y=Ymin+(Ymax−Ymin)/(1+10(Log EC50−X)×HillSlope) E2: • where Y represents percent inhibition values and X represents the logarithm of compound concentrations.
# Selected compounds of the invention were assayed in the HBV replication assay (BDNA assay), as described above and a representative group of these active compounds is shown in Table 3.
row,SMILES,inhibition at 10 µM [%]
1,O=C(Nc1cc(Cl)ccc1F)N1CCc2[nH]nc(-c3ccccc3)c2C1 [Compound 214],> 50
2,O=C(Nc1cnc(Cl)c(Cl)c1)N1CCc2[nH]nc(-c3ccccc3)c2C1 [Compound 226],> 50
3,"O=C(Nc1cccc(Cl)c1)N1CCc2[nH]nc(-c3cccc(F)c3)c2C1 [Compound 277, N-(3-chlorophenyl)-3-(3-fluorophenyl)-1,4,6,7-tetrahydropyrazolo[4,3-c]pyridine-5-carboxamide]",> 50
4,"Cc1ccc(-c2n[nH]c3c2CN(C(=O)Nc2cccc(Cl)c2)CC3)cc1 [Compound 281, N-(3-chlorophenyl)-3-(p-tolyl)-1,4,6,7-tetrahydropyrazolo[4,3-c]pyridine-5-carboxamide]",> 50

# Same assay, conditions: Hepatitis B virus, HepG2.2.15, 144 h, HepG2.2.15 cells, 6 days, encapsidated HBV DNA in supernatant; read-out: Activity in BDNA-assay (EC50)
row,SMILES,pEC50
1,O=C(Nc1ccc(F)c(Cl)c1F)N1CCc2[nH]nc(-c3ccccc3)c2C1 [Compound 205],6.30 to 7.00
2,"O=C(Nc1cccc(Cl)c1)N1CCc2[nH]nc(-c3ccccc3F)c2C1 [Compound 276, N-(3-chlorophenyl)-3-(2-fluorophenyl)-1,4,6,7-tetrahydropyrazolo[4,3-c]pyridine-5-carboxamide]",6.30 to 7.00
3,"O=C(Nc1cccc(Cl)c1)N1CCc2[nH]nc(-c3ccc(F)cc3)c2C1 [Compound 278, N-(3-chlorophenyl)-3-(4-fluorophenyl)-1,4,6,7-tetrahydropyrazolo[4,3-c]pyridine-5-carboxamide]",6.30 to 7.00
4,"Cc1ccccc1-c1n[nH]c2c1CN(C(=O)Nc1cccc(Cl)c1)CC2 [Compound 279, N-(3-chlorophenyl)-3-(o-tolyl)-1,4,6,7-tetrahydropyrazolo[4,3-c]pyridine-5-carboxamide]",6.30 to 7.00
5,"Cc1cccc(-c2n[nH]c3c2CN(C(=O)Nc2cccc(Cl)c2)CC3)c1 [Compound 280, N-(3-chlorophenyl)-3-(m-tolyl)-1,4,6,7-tetrahydropyrazolo[4,3-c]pyridine-5-carboxamide]",6.30 to 7.00
6,"O=C(Nc1cccc(Cl)c1)N1CCc2[nH]nc(-c3cccnc3)c2C1 [Compound 286, N-(3-chlorophenyl)-3-(3-pyridyl)-1,4,6,7-tetrahydropyrazolo[4,3-c]pyridine-5-carboxamide]",6.00 to 6.30
7,O=C(Nc1cccc(Cl)c1)N1CCc2[nH]nc(-c3ccncc3)c2C1 [Compound 287],6.30 to 7.00
8,"O=C(Nc1cccc(Cl)c1)N1CCc2[nH]nc(-c3ncccn3)c2C1 [Compound 289, N-(3-chlorophenyl)-3-pyrimidin-2-yl-1,4,6,7-tetrahydropyrazolo[4,3-c]pyridine-5-carboxamide]",7.00 to 8.00
9,O=C(Nc1cccc(Cl)c1)N1CCc2[nH]nc(-c3cccnn3)c2C1 [Compound 290],7.00 to 8.00
10,"O=C(Nc1cccc(Cl)c1)N1CCc2[nH]nc(-c3cncnc3)c2C1 [Compound 291, N-(3-chlorophenyl)-3-pyrimidin-5-yl-1,4,6,7-tetrahydropyrazolo[4,3-c]pyridine-5-carboxamide]",6.30 to 7.00
11,"COc1cccc(-c2n[nH]c3c2CN(C(=O)Nc2cccc(Cl)c2)CC3)c1 [Compound 326, N-(3-chlorophenyl)-3-(3-methoxyphenyl)-1,4,6,7-tetrahydropyrazolo[4,3-c]pyridine-5-carboxamide]",6.30 to 7.00
12,"COc1ccccc1-c1n[nH]c2c1CN(C(=O)Nc1cccc(Cl)c1)CC2 [Compound 327, N-(3-chlorophenyl)-3-(2-methoxyphenyl)-1,4,6,7-tetrahydropyrazolo[4,3-c]pyridine-5-carboxamide]",6.30 to 7.00
13,CC1CCCC(NC(=O)N2CCc3[nH]nc(-c4ccccc4)c3C2)C1 (stereo not drawn) [Compound 436],6.00 to 6.30
14,"O=C(Nc1cccc(Cl)c1)N1CCc2[nH]nc(-c3cccnc3F)c2C1 [Compound 472, N-(3-chlorophenyl)-3-(2-fluoro-3-pyridyl)-1,4,6,7-tetrahydropyrazolo[4,3-c]pyridine-5-carboxamide]",6.30 to 7.00
15,"O=C(Nc1cccc(Cl)c1)N1CCc2[nH]nc(-c3ccc(F)nc3)c2C1 [Compound 473, N-(3-chlorophenyl)-3-(6-fluoro-3-pyridyl)-1,4,6,7-tetrahydropyrazolo[4,3-c]pyridine-5-carboxamide]",6.00 to 6.30
16,"Cn1cc(-c2n[nH]c3c2CN(C(=O)Nc2cccc(Cl)c2)CC3)cn1 [Compound 495, N-(3-chlorophenyl)-3-(1-methylpyrazol-4-yl)-1,4,6,7-tetrahydropyrazolo[4,3-c]pyridine-5-carboxamide]",5.82 to 6.00
17,Cn1nccc1-c1n[nH]c2c1CN(C(=O)Nc1cccc(Cl)c1)CC2 [Compound 496],6.30 to 7.00
18,O=C(Nc1cccc(Cl)c1)N1CCc2[nH]nc(-c3ccn[nH]3)c2C1 [Compound 497],6.30 to 7.00
19,"O=C(Nc1cccc(Cl)c1)N1CCc2ncn(-c3ccccc3)c2C1 [Compound 542, N-(3-chlorophenyl)-3-phenyl-6,7-dihydro-4H-imidazo[4,5-c]pyridine-5-carboxamide]",6.00 to 6.30
20,Cn1ccc(-c2n[nH]c3c2CN(C(=O)Nc2cccc(Cl)c2)CC3)n1 [Compound 555],6.30 to 7.00
21,O=C(Nc1cccc(C2CC2)c1)N1CCc2[nH]nc(-c3ccccc3)c2C1 [Compound 556],6.30 to 7.00
22,N#Cc1cccc(NC(=O)N2CCc3[nH]nc(-c4ccccc4)c3C2)c1F [Compound 559],7.00 to 8.00
23,N#Cc1cc(NC(=O)N2CCc3[nH]nc(-c4ccccc4)c3C2)ccc1F [Compound 560],7.00 to 8.00
24,"O=C(Nc1cccc(Cl)c1)N1CCc2[nH]nc(-c3ccsc3)c2C1 [Compound 562, N-(3-chlorophenyl)-3-(3-thienyl)-1,4,6,7-tetrahydropyrazolo[4,3-c]pyridine-5-carboxamide]",7.00 to 8.00
25,"O=C(Nc1cccc(Cl)c1)N1CCc2c(ncn2-c2ccccc2)C1 [Compound 583, N-(3-chlorophenyl)-1-phenyl-6,7-dihydro-4H-imidazo[4,5-c]pyridine-5-carboxamide]",5.30 to 5.82

# Same assay, conditions: Hepatitis B virus, HepG2.2.15, 144 h, read-out: Activity in BDNA-assay (activity at 10 μM)
row,SMILES,inhibition at 10 µM [%]
1,"COc1ccc(-c2n[nH]c3c2CN(C(=O)Nc2cccc(Cl)c2)CC3)cc1 [Compound 325, N-(3-chlorophenyl)-3-(4-methoxyphenyl)-1,4,6,7-tetrahydropyrazolo[4,3-c]pyridine-5-carboxamide]",> 50
